Here are results for two molecules from US20200054651A1, “COMPOSITIONS AND METHODS FOR MODULATING PPP2R1A” (The Regents of the University of California, priority 2017, published 2020).

SMILES strings stand for the structures.

One test relates to MCF7 cells. The experiment in a line: MCF7 serum-free cell survival. The test is classed as cell-based. To be noted: 10 μM, 48 h.
The target of a further test is T1, ACAT1 C196 (Homo sapiens, UniProt P24752).
T1 construct: IsoTOP-ABPP analysis of DKM 2-90 treatment in 231MFP cells in situ; endogenous in cells; host or cells: 231MFP cells
T1 sequence (P24752 34-427): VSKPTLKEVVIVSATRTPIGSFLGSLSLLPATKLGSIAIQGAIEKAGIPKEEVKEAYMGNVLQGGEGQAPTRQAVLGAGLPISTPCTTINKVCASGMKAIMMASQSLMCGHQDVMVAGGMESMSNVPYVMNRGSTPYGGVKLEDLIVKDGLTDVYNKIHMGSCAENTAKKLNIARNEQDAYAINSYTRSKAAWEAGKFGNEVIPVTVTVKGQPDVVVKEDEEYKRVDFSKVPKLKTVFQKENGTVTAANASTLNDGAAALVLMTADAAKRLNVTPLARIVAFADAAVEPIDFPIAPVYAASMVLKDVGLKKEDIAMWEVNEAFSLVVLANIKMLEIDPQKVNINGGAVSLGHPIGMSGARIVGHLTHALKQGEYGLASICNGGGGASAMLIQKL
As to the kind of experiment: isoTOP-ABPP after in situ treatment of 231MFP cells. In kind it is binding. To be noted: 100 μM, 4 h in 231MFP cells in situ. The procedure:
(§1) IsoTOP-ABPP studies were performed using the methods described in “Nature 534(7608), 570-574 (2016)” by Backus K. M., et al. and “Nature 468(7325), 790-795 (2010)” by Weerapana E., et al. […] Then, IAyne (iodoacetamide-alkyne) labeling was performed for 1 hour at room temperature. CuAAC was used by sequential addition of tris(2-carboxyethyl)phosphine (1 mM), tris[(1-benzyl-1H-1,2,3-triazol-4-yl)methyl]amine (34 μM), copper (II) sulfate (1 mM), and biotin-linker-azide where the linker was functionalized with a TEV protease recognition sequence along with an isotopically light or heavy valine for treatment of control or treated proteome, respectively. After click reactions, proteomes were precipitated by centrifugation at 6500×g, washed in ice-cold methanol, combined in a 1:1 control/treated ratio, washed again, then denatured and re-solubilized by heating in 1.2% SDS/PBS to 80° C. for 5 minutes. Insoluble components were precipitated by centrifugation at 6500×g and soluble proteome was diluted in 0.2% SDS/PBS (5 ml). Labeled proteins were bound to avidin-agarose beads (170 μl re-suspended beads/sample) while rotating overnight at 4° C. Bead-linked proteins were enriched by washing three times each in PBS and water, then re-suspended in urea/PBS (6 M), reduced in TCEP (1 mM), alkylated with iodoacetamide (18 mM), then washed and re-suspended in urea/PBS (2 M), and finally trypsinized overnight with 0.5 μg/μl sequencing grade trypsin. Tryptic peptides were eluted off. Beads were washed in PBS (3 times) and water (3 times), washed in TEV buffer solution (water, TEV buffer, 100 μM dithiothreitol), and re-suspended in buffer with Ac-TEV protease and then incubated overnight. Peptides were diluted in water, acidified with formic acid (1.2 M), and prepared for analysis.
(§2) Peptides from all proteomic experiments were pressure-loaded onto an Agilent 600 series RP-HPLC system equipped with a capillary tubing (250 mm) packed with Aqua C18 reverse-phase resin (4 cm). The system was previously equilibrated with a gradient (0% B to 100% B over 10 minutes, 100% B for 5 minutes, then 0% B for 5 minutes; buffer A: 95:5 water:acetonitrile, 0.1% formic acid; buffer B: 80:20 acetonitrile:water, 0.1% formic acid). The samples were then attached using a MicroTee PEEK 360 μm fitting to a laser pulled column (13 cm) packed with Aqua C18 reverse-phase resin (10 cm) and strong-cation exchange resin (3 cm) for isoTOP-ABPP studies. Samples were analyzed using an Q Exactive Plus mass spectrometer using a 5-step Multidimensional Protein Identification Technology (MudPIT) program. The system was run using a gradient (5% B to 55% B; buffer A: 95:5 water:acetonitrile, 0.1% formic acid; buffer B: 80:20 acetonitrile:water, 0.1% formic acid), along with a salt bump feeding aqueous ammonium acetate (500 mM) at an increment of 0%, 25%, 50%, 80%, to 100%. Data was collected in data-dependent acquisition mode with dynamic exclusion enabled (60 sec). One full MS scan (400-1800 m/z) (MS1 scan) was conducted, followed by MS2 scan (ITMS) (15 times) of the most abundant ions. Heated capillary temperature was set to 200° C. and the nanospray voltage was set to 2.75 kV.
(§3) Data was extracted in the form of MS1 and MS2 files using Raw Extractor 1.9.9.2 and searched against the Uniprot […] database using ProLuCID search methodology in IP2 v.3, described in “J Proteomics 129:16-24 (2015)” by Xu T, et al. Cysteine residues were searched with a static modification for carboxyaminomethylation (+m/z 57.02146), up to two differential modifications for methionine oxidation, and either the light or heavy TEV tags (+m/z 464.28596 or +m/z 470.29977, respectively). Peptides were required to have at least one tryptic end and to contain the TEV modification. ProLUCID data was filtered through DTASelect to achieve a peptide false-positive rate below 1%. […]

A further test has as its target T2, CLIC4 C35 (Homo sapiens, UniProt Q9Y696).
T2 construct: IsoTOP-ABPP analysis of DKM 2-90 treatment in 231MFP cells in situ; endogenous in cells; host or cells: 231MFP cells
The description is as above. The test is classed as binding. The conditions noted are these: 100 μM, 4 h in 231MFP cells in situ. The procedure:
as §1, §2, §3

In the next test the target is T3, SCP2 C307 (Homo sapiens, UniProt P22307).
T3 construct: IsoTOP-ABPP analysis of DKM 2-90 treatment in 231MFP cells in situ; endogenous in cells; host or cells: 231MFP cells
T3 sequence (P22307 1-547): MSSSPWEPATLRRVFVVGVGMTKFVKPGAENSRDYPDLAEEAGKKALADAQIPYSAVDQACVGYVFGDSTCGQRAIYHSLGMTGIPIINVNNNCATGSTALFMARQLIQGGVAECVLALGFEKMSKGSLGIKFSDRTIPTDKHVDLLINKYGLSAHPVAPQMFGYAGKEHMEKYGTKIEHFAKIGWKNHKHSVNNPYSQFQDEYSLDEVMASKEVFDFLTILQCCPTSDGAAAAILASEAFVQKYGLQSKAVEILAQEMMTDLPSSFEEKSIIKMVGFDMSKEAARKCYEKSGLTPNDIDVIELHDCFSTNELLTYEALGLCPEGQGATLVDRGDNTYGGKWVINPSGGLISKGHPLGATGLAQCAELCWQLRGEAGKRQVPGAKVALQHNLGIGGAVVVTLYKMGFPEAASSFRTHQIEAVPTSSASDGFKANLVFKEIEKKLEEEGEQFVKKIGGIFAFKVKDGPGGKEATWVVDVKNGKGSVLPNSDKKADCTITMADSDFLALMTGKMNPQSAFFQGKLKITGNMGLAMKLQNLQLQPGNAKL
Described as above. The test is classed as binding. The conditions noted are these: 100 μM, 4 h in 231MFP cells in situ. As to the method: as §1, §2, §3

The next test concerns the target T4, TXNDC17 C43 (Homo sapiens, UniProt Q9BRA2).
T4 construct: IsoTOP-ABPP analysis of DKM 2-90 treatment in 231MFP cells in situ; endogenous in cells; host or cells: 231MFP cells
T4 sequence (Q9BRA2 1-123): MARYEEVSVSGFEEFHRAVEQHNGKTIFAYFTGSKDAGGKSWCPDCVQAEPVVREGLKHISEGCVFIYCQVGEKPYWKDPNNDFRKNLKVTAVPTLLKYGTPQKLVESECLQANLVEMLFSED
Described as above. The test is classed as binding. The conditions noted are these: 100 μM, 4 h in 231MFP cells in situ. As to the method:
as §1, §2, §3

T2 sequence (Q9Y696 whole entry): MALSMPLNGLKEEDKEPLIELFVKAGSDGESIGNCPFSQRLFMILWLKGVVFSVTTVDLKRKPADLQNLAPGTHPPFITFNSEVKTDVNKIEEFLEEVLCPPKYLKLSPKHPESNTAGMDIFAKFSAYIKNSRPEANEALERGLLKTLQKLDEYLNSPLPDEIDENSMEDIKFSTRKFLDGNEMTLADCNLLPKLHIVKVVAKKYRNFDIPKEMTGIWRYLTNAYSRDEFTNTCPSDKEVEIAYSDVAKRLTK

As for `CC1=C(CO)C(=O)O[C@@H]([C@@H](C)[C@H]2CC[C@H]3[C@@H]4C[C@H]5O[C@]56[C@@H](O)C=CC(=O)[C@]6(C)[C@H]4CC[C@]23C)C1` [withaferin A, reference compound], in the test with MCF7 cells, the serum-free cell survival result is reported as “impairs”.

For the molecule `O=C(CCl)Nc1ccc2c(c1)OCCO2` [DKM 2-90, 2-Chloro-N-(2,3-dihydrobenzo[β][1,4]dioxin-6-yl)acetamide], on ACAT1 C196, the “isotopically light to heavy ratio, ACAT1 C196” value is given as > 5. Moreover, the “isotopically light to heavy ratio, CLIC4 C35” value at CLIC4 C35 is on record as > 5. Further, the “isotopically light to heavy ratio, SCP2 C307” value on SCP2 C307 was > 5. Further, the “isotopically light to heavy ratio, TXNDC17 C43” value at TXNDC17 C43 is > 5.
